Experimental data from US6992083B2, “Benzoxazol derivatives” (Hoffman-La Roche Inc., priority 2003, dated 2006).

How the values were obtained:
[1] = molecular target: T1, human adenosine A2A receptor (Homo sapiens, UniProt P29274); assay: [3H]-SCH-58261 binding assay, human adenosine A2A receptor; conditions: recombinant receptor in CHO cell membranes, [3H]-SCH-58261 1 nM, Ki by Cheng-Prussoff; read-out: hA2a pKi (converted)
T1 construct: expressed in transfected cells; host or cells: CHO cells, Semliki Forest virus expression system; washed membrane preparation
T1 sequence (P29274 whole entry): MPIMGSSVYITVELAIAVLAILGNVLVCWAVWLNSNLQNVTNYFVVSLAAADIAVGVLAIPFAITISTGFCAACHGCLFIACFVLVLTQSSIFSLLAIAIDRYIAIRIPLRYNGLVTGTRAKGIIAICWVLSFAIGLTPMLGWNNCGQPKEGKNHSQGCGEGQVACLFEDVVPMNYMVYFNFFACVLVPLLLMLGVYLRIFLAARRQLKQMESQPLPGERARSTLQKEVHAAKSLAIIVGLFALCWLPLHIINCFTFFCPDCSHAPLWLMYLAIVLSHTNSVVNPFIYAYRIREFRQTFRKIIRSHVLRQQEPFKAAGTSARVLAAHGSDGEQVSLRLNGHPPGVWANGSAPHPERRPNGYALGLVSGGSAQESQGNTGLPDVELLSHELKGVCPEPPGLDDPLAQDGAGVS
Method: Human Adenosine A2A Receptor
The human adenosine A2A receptor was recombinantly expressed in Chinese hamster ovary (CHO) cells using the semliki forest virus expression system. Cells were harvested, washed twice by centrifugation, homogenised and again washed by centrifugation. The final washed membrane pellet was suspended in a Tris (50 mM) buffer containing 120 mM NaCl, 5 mM KCl, 2 mM CaCl2 and 10 mM MgCl2 (pH 7.4) (buffer A). The [^3H]-SCH-58261 (Dionisotti et al., 1997, Br J Pharmacol 121, 353; 1 nM) binding assay was carried out in 96-well plates in the presence of 2.5 μg of membrane protein, 0.5 mg of Ysi-poly-1-lysine SPA beads and 0.1 U adenosine deaminase in a final volume of 200 μl of buffer A. Non-specific binding was defined using xanthine amine congener (XAC; 2 μM). Compounds were tested at 10 concentrations from 10 μM–0.3 nM. All assays were conducted in duplicate and repeated at least two times. Assay plates were incubated for 1 hour at room temperature before centrifugation and then bound ligand determined using a Packard Topcount scintillation counter. IC50 values were calculated using a non-linear curve fitting program and Ki values calculated using the Cheng-Prussoff equation.

hA1 = molecular target: T2, hA1 (Homo sapiens, UniProt P30542); assay: selectivity to the A1 receptor; assay type: binding; conditions: selectivity of A2a affinity versus hA1
T2 sequence (P30542 1-326): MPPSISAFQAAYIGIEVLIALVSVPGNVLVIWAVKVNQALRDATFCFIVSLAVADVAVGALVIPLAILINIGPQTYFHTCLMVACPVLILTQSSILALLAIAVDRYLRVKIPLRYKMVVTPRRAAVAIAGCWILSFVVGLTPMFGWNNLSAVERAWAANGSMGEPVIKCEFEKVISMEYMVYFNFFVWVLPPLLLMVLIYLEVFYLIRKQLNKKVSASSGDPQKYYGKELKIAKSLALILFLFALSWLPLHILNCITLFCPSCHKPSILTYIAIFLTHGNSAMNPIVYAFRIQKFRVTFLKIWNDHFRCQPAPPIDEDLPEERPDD

`COc1ccc(-c2ccccc2)c2oc(NC(=O)c3ccc(F)cc3)nc12` [Example 1, 4-Fluoro-N-(4-methoxy-7-phenyl-benzooxazol-2-yl)-benzamide] was tested, and the Ki [1] was 12 nM and the “selectivity to hA1” value (hA1) was 26.
For `COCCN(C)Cc1ccc(C(=O)Nc2nc3c(OC)ccc(-c4ccccc4)c3o2)cc1` [Example 2, 4-{[(2-Methoxy-ethyl)-methyl-amino]-methyl}-N-(4-methoxy-7-phenyl-benzooxazol-2-yl)-benzamide], the Ki [1] was 22.4 nM and the “selectivity to hA1” value (hA1) was 137.
`COc1ccc(C2CCOCC2)c2oc(NC(=O)c3ccc(F)cc3)nc12` [Example 5, 4-Fluoro-N-[4-methoxy-7-(tetrahydro-pyran-4-yl)-benzooxazol-2-yl]-benzamide] was tested, and the Ki [1] was 21.9 nM and the “selectivity to hA1” value (hA1) was 140.
`COc1ccc(C2CCOCC2)c2oc(NC(=O)c3ccnc(N4CCOCC4)c3)nc12` [Example 9, N-[4-Methoxy-7-(tetrahydro-pyran-4-yl)-benzooxazol-2-yl]-2-morpholin-4-yl-isonicotinamide] was tested, and the Ki [1] was 21.9 nM and the “selectivity to hA1” value (hA1) was 351.
For `COc1ccc(-c2ccc(F)cc2)c2oc(NC(=O)c3ccnc(CCl)c3)nc12` [Example 13, 2-Chloromethyl-N-[7-(4-fluoro-phenyl)-4-methoxy-benzooxazol-2-yl]-isonicotinamide], the Ki [1] was 22.9 nM and the “selectivity to hA1” value (hA1) was 227.
`COc1ccc(-c2ccc(F)cc2)c2oc(NC(=O)c3ccnc(C)c3)nc12` [Example 14, N-[7-(4-Fluoro-phenyl)-4-methoxy-benzooxazol-2-yl]-2-methyl-isonicotinamide] was tested, and the Ki [1] was 15.8 nM and the “selectivity to hA1” value (hA1) was 134.
`COc1ccc(-c2ccc(F)cc2)c2oc(NC(=O)c3ccc(C)nc3)nc12` [Example 17, N-[7-(4-Fluoro-phenyl)-4-methoxy-benzooxazol-2-yl]-6-methyl-nicotinamide] was tested, and the Ki [1] was 12.9 nM and the “selectivity to hA1” value (hA1) was 242.
With `COc1ccc(-c2ccc(F)cc2)c2oc(NC(=O)c3ccc(F)cc3)nc12` [Example 18, 4-Fluoro-N-[7-(4-fluoro-phenyl)-4-methoxy-benzooxazol-2-yl]-benzamide] the Ki [1] was 6.46 nM and the “selectivity to hA1” value (hA1) was 120.
In the case of `COc1ccc(-c2ccc(F)cc2)c2oc(NC(=O)c3ccnc(N4CCOCC4)c3)nc12` [Example 20, N-[7-(4-Fluoro-phenyl)-4-methoxy-benzooxazol-2-yl]-2-morpholin-4-yl-isonicotinamide], the Ki [1] was 8.51 nM and the “selectivity to hA1” value (hA1) was 650.
`COCc1cc(C(=O)Nc2nc3c(OC)ccc(-c4ccc(F)cc4)c3o2)ccn1` [Example 21, N-[7-(4-Fluoro-phenyl)-4-methoxy-benzooxazol-2-yl]-2-methoxymethyl-isonicotinamide] was tested, and the Ki [1] was 30.2 nM and the “selectivity to hA1” value (hA1) was 96.
